In paper PMC12584615, “Degradation of 2,4-D by plant growth-promoting Cupriavidus sp. DSPFs: role in mitigating herbicide toxicity in soil and enhancing crop production” (Microbiology Spectrum, 2025):

What was measured:
[1] = molecular target: 2,4-dichlorophenol-6-monooxygenase from Cupriavidus sp. strain DSPFs (Cupriavidus sp. strain DSPFs); assay: SEC; ENrich SEC 650 column (24 mL) in 50 mM potassium phosphate buffer pH 7.5, 4°C; calibrated with mass markers from 12.4 to 669 kDa; native mass from log(mol mass) versus Ve/V0, compared with the subunit mass from SDS-PAGE
[2] = molecular target: T1, 2,4-dichlorophenol-6-monooxygenase (24DCPM); assay: spectrophotometric NAD(P)H consumption at […] nm, uncompetitive substrate inhibition fit; assay type: biochemical, Cupriavidus sp. DSPFs; conditions: substrate inhibition constant; 200 µM NADH; phosphate buffer 50 mM pH 7.5; 6.25 µM FAD
T1 construct: gene tfdB; homotetramer ~255 kDa, subunit ~65 kDa

[3] = tested on: T1, 2,4-dichlorophenol-6-monooxygenase (24DCPM); assay: as above; assay type: biochemical, Cupriavidus sp. DSPFs; conditions: 200 µM NADH; phosphate buffer 50 mM pH 7.5; 6.25 µM FAD; read-out: Km (μM) / I^a
[4] = tested on: T1, 2,4-dichlorophenol-6-monooxygenase (24DCPM); assay: spectrophotometric NAD(P)H consumption at […] nm, Michaelis-Menten fit; assay type: biochemical, Cupriavidus sp. DSPFs; conditions: 50 µM 2,4-dichlorophenol; phosphate buffer 50 mM pH 7.5; 6.25 µM FAD; read-out: Km (μM) / I^a

In the case of “2,4-dichlorophenol-6-monooxygenase from Cupriavidus sp. strain DSPFs (enzyme)”, the stoichiometry N [1] is reported as 4.
With `Oc1ccc(Cl)cc1Cl` [2,4-DCP, 2,4-dichlorophenol] the “Ki (μM) / I” value [2] was 374 ± 80 µM and the Km [3] was 3.1 ± 0.8 µM.
In the case of `NC(=O)C1=CN([C@@H]2O[C@H](COP(=O)(O)OP(=O)(O)OC[C@H]3O[C@@H](n4cnc5c(N)ncnc54)[C@H](O)[C@@H]3O)[C@@H](O)[C@H]2O)C=CC1` [NADH], the Km [4] is reported as 205 ± 47 µM.
For `NC(=O)C1=CN([C@@H]2O[C@H](COP(=O)(O)OP(=O)(O)OC[C@H]3O[C@@H](n4cnc5c(N)ncnc54)[C@H](OP(=O)(O)O)[C@@H]3O)[C@@H](O)[C@H]2O)C=CC1` [NADPH], the Km [4] was 46.8 ± 6 µM.
